Experimental data from US20250000043A1, “NON-TRANSGENIC SUNFLOWER PLANTS HAVING INCREASED TOLERANCE TO HERBICIDES” (BASF Agricultural Solutions Seed US LLC, priority 2021, published 2025).
Read-outs that look alike come from different tables or passages of the source.

How the values were obtained:
Assay type in all cases: biochemical, sunflower
wild-type PPO2 enzyme = wild-type PPO2 enzyme (Helianthus annuus, UniProt A0A251TWC2); assay: In vitro PPO inhibition assay, wild type enzyme (Example 5)
Excerpt: (§1) To test whether the PPO2_F383I is the main cause of the observed saflufenacil tolerance, we used an in vitro to compare the inhibition potency (IC50) of different PPO inhibiting herbicides between wild-type and mutant PPO2 enzyme. The in vitro assay assesses the oxidation of protoporphyrinogen IX to protoporphyrin IX, catalyzed by the PPO enzyme. Both the wild type and mutant PPO2 proteins were heterologously expressed in E. coli and purified. Purified protein was mixed with different concentrations of the herbicide ranging from 10^−5M to 10^−11M and protein activity was measured. Protein activity is defined as the fluorescence per minute that the reaction generates. In the reaction, the purified PPO enzyme is mixed with substrate protoporphyrinogen IX and the herbicide. The product of the reaction is excited at 405 nm and produces a fluorescence at 630 nm which we detect. IC50 (in Mol) and tolerance factor were calculated.

[1] = molecular target: PPO2_F383I mutant PPO2 enzyme (Helianthus annuus, UniProt A0A251TWC2, F383I); assay: In vitro PPO inhibition assay, mutant enzyme (Example 5)
Excerpt: as §1

[2] = system: PPO2_F383I mutant PPO2 enzyme; assay: as above; details: PPO2_F383I versus wild type IC50
Excerpt: as §1

PPO2_F383I mutant PPO2 enzyme (Helianthus annuus, UniProt A0A251TWC2, F383I), sequence (A0A251TWC2 entry or part of it F383I): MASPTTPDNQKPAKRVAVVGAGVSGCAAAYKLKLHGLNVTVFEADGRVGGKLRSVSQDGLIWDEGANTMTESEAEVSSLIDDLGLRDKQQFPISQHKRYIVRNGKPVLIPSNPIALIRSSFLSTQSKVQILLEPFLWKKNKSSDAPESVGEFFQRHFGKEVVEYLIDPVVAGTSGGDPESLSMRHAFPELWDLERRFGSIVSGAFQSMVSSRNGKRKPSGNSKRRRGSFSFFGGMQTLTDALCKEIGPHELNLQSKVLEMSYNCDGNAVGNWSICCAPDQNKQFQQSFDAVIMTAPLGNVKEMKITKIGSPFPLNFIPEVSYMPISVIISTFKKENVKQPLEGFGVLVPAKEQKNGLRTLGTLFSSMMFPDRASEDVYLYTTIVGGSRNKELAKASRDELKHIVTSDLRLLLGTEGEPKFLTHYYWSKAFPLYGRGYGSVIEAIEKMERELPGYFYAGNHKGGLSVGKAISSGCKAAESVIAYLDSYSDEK
wild-type PPO2 enzyme, sequence (A0A251TWC2 entry or part of it): as the sequence (A0A251TWC2 entry or part of it F383I) above, with I383F counted along it

SMILES | IC50 (wild-type PPO2 enzyme; purified enzyme expressed in E. coli, herbicide 10^-5 M to 10^-11 M, read-out: Wild type IC50) [nM] | IC50 ([1]; purified enzyme expressed in E. coli, herbicide 10^-5 M to 10^-11 M, read-out: PPO2_F383I IC50) [nM] | Tolerance factor [2] | IC50 (wild-type PPO2 enzyme) [nM] | IC50 [1] [nM]
COC(=O)CCNC(=O)C(C)Sc1cc(-n2c(=O)cc(C(F)(F)F)n(C)c2=O)c(F)cc1Cl (stereo not drawn) [Tiafenacil] | 0.93 | 1300 | 1398 |  | 
C#CCN1C(=O)C(F)(F)Oc2cc(F)c(-n3c(=O)n(C)c(=S)n(C)c3=O)cc21 [Trifludimoxazin (Tirexor ™), 1,5-dimethyl-6-thioxo-3-(2,2,7-trifluoro-3-oxo-4-(prop-2-ynyl)-3,4-dihydro-2H-benzo[b][1,4]oxazin-6-yl)-1,3,5-triazinane-2,4-dione] |  |  | 3257 | 1.4 | 4560
